Measurements: article PMC11483378, “Triazole-Based Thiamine Analogues as Inhibitors of Thiamine Pyrophosphate-Dependent Enzymes: 1,3-Dicarboxylate for Metal Binding” (ACS Omega, 2024)
Read-outs that look alike come from different tables or passages of the source.

Tests used:
E. coli OGDH E1 = E. coli OGDH E1 (Escherichia coli, UniProt P0AFG3); test: E. coli OGDH E1 inhibitory activity assay (DCPIP reduction); assay type: biochemical
Experimental: E. coli OGDH E1 was from material donated by R. Frank. E. coli OGDH E1 activity was determined by monitoring DCPIP reduction at 600 nm using a microplate reader (CLARIOstar) and conducted as described[5] with some modifications. […] The reaction buffer (50 mM KH2PO4 and 2 mM MgCl2, pH 7) contained TPP at specified concentrations, 0.5 mM DCPIP, and 6.7 mg/mL E. coli OGDH E1. The reaction mixture was preincubated at 37 °C with the inhibitor for 60 min, and then the reaction was initiated by adding α-ketoglutarate to a final concentration of 10 mM. To determine the IC50, the TPP concentration was set at 60 μM with varying inhibitor concentrations. Specific activity was calculated using the molar extinction coefficient of DCPIP, 21 mM^–1 cm^–1.[28] The IC50 values were calculated from nonlinear regression curve fitting using GraphPad Prism.
Enzyme inhibitory activity assays – methods and results (Figures S1-4) […]
The compound […]
E. coli OGDH E1 inhibitory activity assay. E. coli OGDH E1 was from material donated by R. Frank. E. coli OGDH E1 activity was determined by monitoring DCPIP reduction at 600 nm using a microplate reader (CLARIOstar) and conducted as described3 with some modifications. The percentage inhibition of compounds against E. coli OGDH E1 was assayed at 250 μM. The reaction buffer (50 mM KH 2PO4 and 2 mM MgCl2, pH 7) contained TPP at specified concentrations, 0.5 mM DCPIP, and 6.7 mg/ml E. coli OGDH E1. The reaction mixture was preincubated at 37 °C with the inhibitor for 60 min, then reaction was initiated by adding α-ketoglutarate to a final concentration of 10 mM. To determine the IC50, TPP concentration was set at 60 µM with varying inhibitor concentrations. Specific activity was […]

Porcine PDH E1 = biological target: T1, Porcine PDH E1 (Sus scrofa, UniProt P29804); test: Porcine PDH E1 inhibitory activity assay (DCPIP reduction); assay type: biochemical; details: for % Inhibition (5:1): [Compound] = 250 μM, [TPP] = 50 μM; for inhibition at 250 µM: [Compound] = [TPP] = 250 μM, read-out: % Inhibition (1:1); for vs TPP: affinity of the compound relative to that of TPP (= [TPP]/IC50) / IC50: [TPP] = 60 µM; for IC50: read-out: IC50 (μM ± SEM); for Ki: calculated from KM(TPP) 0.05 µM using [TPP]/IC50 = KM(TPP)/KI
T1 sequence (P29804 31-390): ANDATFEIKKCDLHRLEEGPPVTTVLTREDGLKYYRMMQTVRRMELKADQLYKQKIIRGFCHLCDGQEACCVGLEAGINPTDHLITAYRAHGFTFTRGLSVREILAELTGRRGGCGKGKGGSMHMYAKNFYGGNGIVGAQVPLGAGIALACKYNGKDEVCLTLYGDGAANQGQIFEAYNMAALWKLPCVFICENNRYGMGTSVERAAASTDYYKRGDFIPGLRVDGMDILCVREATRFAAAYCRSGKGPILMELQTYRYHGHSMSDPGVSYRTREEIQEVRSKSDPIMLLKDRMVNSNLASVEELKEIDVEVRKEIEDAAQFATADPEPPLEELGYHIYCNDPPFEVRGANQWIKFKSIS
Experimental: Porcine PDH E1 was purchased from Sigma. Porcine PDH E1 activity was determined by monitoring 2,6-dichlorophenolindophenol (DCPIP) reduction at 600 nm using a microplate reader (CLARIOstar) and conducted as described[5] with some modifications. […] The reaction buffer (50 mM KH2PO4 and 1 mM MgCl2, pH 7) contained thiamine pyrophosphate (TPP) at specified concentrations, 0.25 mM DCPIP, and 2 mg/mL porcine PDH E1. The reaction mixture was preincubated at 37 °C with the inhibitor for 30 min, and then the reaction was initiated by adding pyruvate to a final concentration of 50 mM. To determine the half-maximal inhibitory concentration (IC50), the TPP concentration was set at 60 μM with varying inhibitor concentrations. Specific activity was calculated using the molar extinction coefficient of DCPIP, 21 mM^–1 cm^–1.[28] The IC50 values were calculated from nonlinear regression curve fitting using GraphPad Prism.
Porcine PDH E1 inhibitory activity assay. Porcine PDH E1 was purchased from Sigma. Porcine PDH E1 activity was determined by monitoring 2,6-dichlorophenolindophenol (DCPIP) reduction at 600 nm using a microplate reader (CLARIOstar) and conducted as described3 with some modifications. The […]
buffer (50 mM KH2PO4 and 1 mM MgCl2, pH 7) contained thiamine pyrophosphate (TPP) at specified concentrations, 0.25 mM 2,6-dichlorophenolindophenol (DCPIP), and 2 mg/mL porcine PDH E1. The reaction mixture was preincubated at 37 °C with the inhibitor for 30 min, then reaction was initiated by adding pyruvate to a final concentration of 50 mM. To determine the half-maximal inhibitory concentration (IC50), TPP concentration was set at 60 µM with varying inhibitor concentrations. […]
values were calculated from non-linear regression curve fitting using GraphPad Prism. […]

[1] = [Compound] = 250 μM, [TPP] = 50 μM
[2] = [Compound] = [TPP] = 250 μM; read-out: % Inhibition (1:1)
[3] = [TPP] = 60 µM; read-out: IC50 (μM ± SEM)
[4] = calculated from KM(TPP) 3 µM using [TPP]/IC50 = KM(TPP)/KI; read-out: KI
[5] = calculated from KM(TPP) 3 µM using [TPP]/IC50 = KM(TPP)/KI
[6] = read-out: IC50 (μM ± SEM); [TPP] = 60 µM

Chain of E. coli OGDH E1 (P0AFG3 whole entry): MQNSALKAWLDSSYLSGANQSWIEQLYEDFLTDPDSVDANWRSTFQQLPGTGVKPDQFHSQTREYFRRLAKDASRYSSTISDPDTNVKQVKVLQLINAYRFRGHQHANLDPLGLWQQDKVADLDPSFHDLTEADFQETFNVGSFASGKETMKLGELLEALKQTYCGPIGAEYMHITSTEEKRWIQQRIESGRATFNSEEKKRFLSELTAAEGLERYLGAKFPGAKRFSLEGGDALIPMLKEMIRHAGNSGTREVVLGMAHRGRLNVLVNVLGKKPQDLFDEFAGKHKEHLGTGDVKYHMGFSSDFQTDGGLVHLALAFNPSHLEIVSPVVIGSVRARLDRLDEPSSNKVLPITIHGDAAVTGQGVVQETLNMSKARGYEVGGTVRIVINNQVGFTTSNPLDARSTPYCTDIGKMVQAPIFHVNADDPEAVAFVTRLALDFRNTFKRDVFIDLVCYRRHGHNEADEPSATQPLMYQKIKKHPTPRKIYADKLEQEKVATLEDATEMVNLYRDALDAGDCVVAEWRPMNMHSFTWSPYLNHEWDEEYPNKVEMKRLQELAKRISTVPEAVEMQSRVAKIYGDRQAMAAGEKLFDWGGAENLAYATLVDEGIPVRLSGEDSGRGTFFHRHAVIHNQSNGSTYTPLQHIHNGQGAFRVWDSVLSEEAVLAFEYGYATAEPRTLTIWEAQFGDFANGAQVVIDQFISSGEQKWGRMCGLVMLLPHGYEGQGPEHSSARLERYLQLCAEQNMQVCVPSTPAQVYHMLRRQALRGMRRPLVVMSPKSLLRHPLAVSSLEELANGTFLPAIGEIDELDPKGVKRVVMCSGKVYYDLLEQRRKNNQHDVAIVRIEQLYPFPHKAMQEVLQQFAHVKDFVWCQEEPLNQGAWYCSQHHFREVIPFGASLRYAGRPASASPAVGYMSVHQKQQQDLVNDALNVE

Structure (SMILES) | % Inhibition (5:1) (E. coli OGDH E1; [1]) | inhibition at 250 µM (E. coli OGDH E1; [2]) | vs TPP: affinity of the compound relative to that of TPP (= [TPP]/IC50) (E. coli OGDH E1; [TPP] = 60 µM) | IC50 (E. coli OGDH E1; [3]) | Ki (E. coli OGDH E1; [4]) | % Inhibition (5:1) (Porcine PDH E1) | inhibition at 250 µM (Porcine PDH E1) | vs TPP: affinity of the compound relative to that of TPP (= [TPP]/IC50) (Porcine PDH E1) | IC50 (Porcine PDH E1) | Ki (Porcine PDH E1) | Ki (E. coli OGDH E1; [5]) | IC50 (E. coli OGDH E1; [6])
COC(=O)C(CCc1cn(Cc2cnc(C)nc2N)nn1)C(=O)OC [13a] | 40 ± 3% | < 20% | 0.15 | 394 ± 65 µM | 20 µM | 71 ± 3% | 36 ± 2% | 0.53 | 114 ± 15 µM | 0.095 µM |  | 
COC(=O)C(CCCc1cn(Cc2cnc(C)nc2N)nn1)C(=O)OC [13b] | 54 ± 3% | 23 ± 4% | 0.24 | 251 ± 37 µM | 13 µM | 81 ± 4% | 48 ± 3% | 0.88 | 68 ± 9 µM | 0.057 µM |  | 
Cc1ncc(Cn2cc(CCC(C(=O)[O-])C(=O)[O-])nn2)c(N)n1.[K+].[K+] [14a] | 76 ± 5% | 36 ± 4% | 0.57 |  |  | > 90% | 62 ± 3% | 1.62 | 37 ± 6 µM | 0.031 µM | 5.3 µM | 105 ± 11 µM
Cc1ncc(Cn2cc(CCCC(C(=O)[O-])C(=O)[O-])nn2)c(N)n1.[K+].[K+] [14b] | 83 ± 4% | 47 ± 3% | 0.90 |  |  | > 90% | 72 ± 3% | 2.4 | 25 ± 6 µM | 0.021 µM | 3.4 µM | 67 ± 9 µM
COC(=O)CCCc1cn(Cc2cnc(C)nc2N)nn1 [15a] | 38 ± 3% | < 20% | 0.15 | 407 ± 73 µM | 20 µM | 65 ± 4% | 25 ± 4% | 0.36 | 167 ± 35 µM | 0.14 µM |  | 
COC(=O)CCCCc1cn(Cc2cnc(C)nc2N)nn1 [15b] | 42 ± 4% | < 20% | 0.17 | 353 ± 29 µM | 18 µM | 71 ± 4% | 31 ± 3% | 0.48 | 126 ± 28 µM | 0.11 µM |  | 
Cc1ncc(Cn2cc(CCCC(=O)[O-])nn2)c(N)n1.[K+] [16a] | 49 ± 3% | < 20% | 0.19 |  |  | 75 ± 4% | 34 ± 3% | 0.54 | 111 ± 18 µM | 0.093 µM | 16 µM | 316 ± 57 µM
Cc1ncc(Cn2cc(CCCCC(=O)[O-])nn2)c(N)n1.[K+] [16b] | 54 ± 4% | 22 ± 5% | 0.22 |  |  | 77 ± 3% | 40 ± 3% | 0.65 | 92 ± 13 µM | 0.077 µM | 14 µM | 273 ± 44 µM
